Molecules are shown by their SMILES.

The term melting point denotes the temperature of the solid-liquid transition. Regarding `Cc1ccc(-c2ccc(NC(=O)Nc3ccccc3Cl)c(-c3nnn[nH]3)c2)cc1` [Compound 3-28, N-(2-Chloro-phenyl)-N′-[4′-methyl-3-(1H-tetrazol-5-yl)-biphenyl-4-yl]-urea], the melting point was 261 to 263 °C. In turn, `O=C(Nc1cc(Cl)cc(Cl)c1)Nc1ccc(-c2ccc(F)cc2)cc1-c1nnn[nH]1` [Compound 3-10, N-(3,5-Dichloro-phenyl)-N′-[4′-fluoro-3-(1H-tetrazol-5-yl)-biphenyl-4-yl]-urea] registered a melting point of 241 to 243 °C. In turn, `O=C(Nc1cc(Cl)cc(Cl)c1)Nc1ccc(-c2ccc(Cl)cc2)cc1-c1nnn[nH]1` [Compound 3-4, N-(3,5-Dichloro-phenyl)-N′-[4′-chloro-3-(1H-tetrazol-5-yl)-biphenyl-4-yl]-urea] returned a melting point of 231 to 234 °C. `O=C(Nc1cc(C(F)(F)F)cc(C(F)(F)F)c1)Nc1ccc(-c2ccc(Cl)cc2)cc1-c1nnn[nH]1` [Compound 3-14, N-(3,5-Bis-trifluoromethyl-phenyl)-N′-[4′-chloro-3-(1H-tetrazol-5-yl)-biphenyl-4-yl]-urea] came in with a melting point of 230 to 233 °C.

In turn, `O=C(Nc1cc(Cl)cc(Cl)c1)Nc1ccc(-c2ccc(OC(F)(F)F)cc2)cc1-c1nnn[nH]1` [Compound 3-36, N-(3,5-Dichloro-phenyl)-N′-[3-(1H-tetrazol-5-yl)-4′-trifluoromethoxy-biphenyl-4-yl]-urea] showed a melting point of 224 to 225 °C. As to `O=C(Nc1ccccc1Cl)Nc1ccc(-c2ccc(Cl)cc2)cc1-c1nnn[nH]1` [Compound 3-32, N-(2-Chloro-phenyl)-N′-[4′-chloro-3-(1H-tetrazol-5-yl)-biphenyl-4-yl]-urea], the melting point was in the range of 255 to 257 °C.

As to `O=C(Nc1cc(F)cc(F)c1)Nc1ccc(-c2ccc(C(F)(F)F)cc2)cc1-c1nnn[nH]1` [Compound 3-7, N-(3,5-Difluoro-phenyl)-N′-[3-(1H-tetrazol-5-yl)-4′-trifluoromethyl-biphenyl-4-yl]-urea], the melting point was in the range of 245 to 247 °C. The compound `O=C(Nc1cc(C(F)(F)F)cc(C(F)(F)F)c1)Nc1ccc(-c2ccc(C(F)(F)F)cc2)cc1-c1nnn[nH]1` [Compound 3-13, N-(3,5-Bis-trifluoromethyl-phenyl)-N′-[3-(1H-tetrazol-5-yl)-4′-trifluoromethyl-biphenyl-4-yl]-urea] came in with a melting point of 246 to 248 °C. For `O=C(Nc1ccc(-c2ccc(C(F)(F)F)cc2)cc1-c1nnn[nH]1)Nc1ccccc1C(F)(F)F` [Compound 3-18, N-(2-Trifluoromethyl-phenyl)-N′-[3-(1H-tetrazol-5-yl)-4′-trifluoromethyl-biphenyl-4-yl]-urea], the melting point was in the range of 240 to 243 °C. As for `O=C(Nc1cc(-c2ccc(F)cc2)cc(-c2nnn[nH]2)c1)Nc1cccc(C(F)(F)F)c1` [Compound 3-8, N-(3-Trifluoromethyl-phenyl)-N′-[4′-fluoro-3-(1H-tetrazol-5-yl)-biphenyl-5-yl]-urea], the melting point fell in the range of 256 to 258 °C. The figure for `O=C(Nc1ccccc1Br)Nc1ccc(-c2ccc(C(F)(F)F)cc2)cc1-c1nnn[nH]1` [Compound 3-20, N-(2-Bromo-phenyl)-N′-[3-(1H-tetrazol-5-yl)-4′-trifluoromethyl-biphenyl-4-yl]-urea] is 242 to 243 °C; for `O=C(Nc1cc(F)cc(F)c1)Nc1ccc(-c2ccc(OC(F)(F)F)cc2)cc1-c1nnn[nH]1` [Compound 3-35, N-(3,5-Difluoro-phenyl)-N′-[3-(1H-tetrazol-5-yl)-4′-trifluoromethoxy-biphenyl-4-yl]-urea] it is 238 to 241 °C; for `O=C(Nc1ccc(F)c(C(F)(F)F)c1)Nc1ccc(-c2ccc(F)cc2)cc1-c1nnn[nH]1` [Compound 3-17, N-(4-Fluoro-3-trifluoromethyl-phenyl)-N′-[4′-fluoro-3-(1H-tetrazol-5-yl)-biphenyl-4-yl]-urea] it is 253 to 254 °C.

`O=C(Nc1cc(C(F)(F)F)cc(C(F)(F)F)c1)Nc1ccc(-c2cccc(C(F)(F)F)c2)cc1-c1nnn[nH]1` [Compound 3-40, N-(3,5-Bis-trifluoromethyl-phenyl)-N′-[3-(1H-tetrazol-5-yl)-3′-trifluoromethyl-biphenyl-4-yl]-urea] had a melting point of 250 to 252 °C. Compound `O=C(Nc1ccccc1Br)Nc1ccc(-c2ccc(Cl)cc2)cc1-c1nnn[nH]1` [Compound 3-22, N-(2-Bromo-phenyl)-N′-[4′-chloro-3-(1H-tetrazol-5-yl)-biphenyl-4-yl]-urea] registered a melting point of 255 to 256 °C. As to `O=C(Nc1ccc(F)c(C(F)(F)F)c1)Nc1ccc(-c2ccc(C(F)(F)F)cc2)cc1-c1nnn[nH]1` [Compound 3-12, N-(4-Fluoro-3-trifluoromethyl-phenyl)-N′-[3-(1H-tetrazol-5-yl)-4′-trifluoromethyl-biphenyl-4-yl]-urea], the melting point lay within 247 to 249 °C. On to `O=C(Nc1ccccc1Cl)Nc1ccc(-c2ccc(C(F)(F)F)cc2)cc1-c1nnn[nH]1` [Compound 3-31, N-(2-Chloro-phenyl)-N′-[3-(1H-tetrazol-5-yl)-4′-trifluoromethyl-biphenyl-4-yl]-urea], for which the melting point fell in the range of 254 to 255 °C.

The compound `O=C(Nc1ccc(Cl)cc1)Nc1ccc(-c2ccc(C(F)(F)F)cc2)cc1-c1nnn[nH]1` [Compound 3-44, N-(4-Chloro-phenyl)-N′-[3-(1H-tetrazol-5-yl)-4′-trifluoromethyl-biphenyl-4-yl]-urea] displayed a melting point of 232 to 234 °C. Take `Cc1ccc(-c2ccc(NC(=O)Nc3ccccc3C(F)(F)F)c(-c3nnn[nH]3)c2)cc1` [Compound 3-30, N-(2-Trifluoromethyl-phenyl)-N′-[4′-methyl-3-(1H-tetrazol-5-yl)-biphenyl-4-yl]-urea]: the melting point was in the range of 259 to 261 °C. The figure for `O=C(Nc1ccccc1F)Nc1ccc(-c2ccc(F)cc2)cc1-c1nnn[nH]1` [Compound 3-26, N-(2-Fluoro-phenyl)-N′-[4′-fluoro-3-(1H-tetrazol-5-yl)-biphenyl-4-yl]-urea] is 263 to 264 °C; for `O=C(Nc1ccc(-c2ccc(F)cc2)cc1-c1nnn[nH]1)Nc1ccccc1C(F)(F)F` [Compound 3-19, N-(2-Trifluoromethyl-phenyl)-N′-[4′-fluoro-3-(1H-tetrazol-5-yl)-biphenyl-4-yl]-urea] it is 256 to 258 °C.

`O=C(Nc1ccc(-c2ccc(Cl)cc2)cc1-c1nnn[nH]1)Nc1ccccc1C(F)(F)F` [Compound 3-21, N-(2-Trifluoromethyl-phenyl)-N′-[4′-chloro-3-(1H-tetrazol-5-yl)-biphenyl-4-yl]-urea] displayed a melting point of 290 to 292 °C. Regarding `O=C(Nc1ccc(Cl)c(C(F)(F)F)c1)Nc1ccc(-c2ccc(Cl)cc2)cc1-c1nnn[nH]1` [Compound 3-3, N-(4-Chloro-3-trifluoromethyl-phenyl)-N′-[4′-chloro-3-(1H-tetrazol-5-yl)-biphenyl-4-yl]-urea], the melting point lay in the range of 242 to 243 °C. `O=C(Nc1cc(F)cc(F)c1)Nc1ccc(-c2ccc(F)cc2)c(-c2nnn[nH]2)c1` [Compound 3-11, N-(3,5-Difluoro-phenyl)-N′-[4′-fluoro-2-(1H-tetrazol-5-yl)-biphenyl-4-yl]-urea] had a melting point of 255 to 256 °C. For the compound `O=C(Nc1ccc(F)c(C(F)(F)F)c1)Nc1ccc(-c2cccc(C(F)(F)F)c2)cc1-c1nnn[nH]1` [Compound 3-45, N-(4-Fluoro-3-trifluoromethyl-phenyl)-N′-[3-(1H-tetrazol-5-yl)-3′-trifluoromethyl-biphenyl-4-yl]-urea], the melting point lay in the range of 254 to 255 °C. `O=C(Nc1cc(F)cc(F)c1)Nc1ccc(-c2ccc(Cl)cc2)cc1-c1nnn[nH]1` [Compound 3-5, N-(3,5-Difluoro-phenyl)-N′-[4′-chloro-3-(1H-tetrazol-5-yl)-biphenyl-4-yl]-urea]: the melting point fell in the range of 250 to 251 °C. Next, `Cc1ccc(-c2ccc(NC(=O)Nc3ccccc3Br)c(-c3nnn[nH]3)c2)cc1` [Compound 3-29, N-(2-Bromo-phenyl)-N′-[4′-methyl-3-(1H-tetrazol-5-yl)-biphenyl-4-yl]-urea]: 255 to 257 °C.

In turn, `Cc1ccc(-c2ccc(NC(=O)Nc3ccccc3F)c(-c3nnn[nH]3)c2)cc1` [Compound 3-27, N-(2-Fluoro-phenyl)-N′-[4′-methyl-3-(1H-tetrazol-5-yl)-biphenyl-4-yl]-urea] had a melting point of 260 to 262 °C. The figure for `O=C(Nc1ccccc1Cl)Nc1ccc(-c2ccc(F)cc2)cc1-c1nnn[nH]1` [Compound 3-33, N-(2-Chloro-phenyl)-N′-[4′-fluoro-3-(1H-tetrazol-5-yl)-biphenyl-4-yl]-urea] is 255 to 257 °C. `COc1ccc(-c2ccc(NC(=O)Nc3cc(C(F)(F)F)cc(C(F)(F)F)c3)c(-c3nnn[nH]3)c2)cc1` [Compound 3-42, N-(3,5-Bis-trifluoromethyl-phenyl)-N′-[4′-methoxy-3-(1H-tetrazol-5-yl)-biphenyl-4-yl]-urea]: the melting point is 219 to 221 °C. The compound `COc1ccc(-c2ccc(NC(=O)Nc3cc(Cl)cc(Cl)c3)c(-c3nnn[nH]3)c2)cc1` [Compound 3-34, N-(3,5-Dichloro-phenyl)-N′-[4′-methoxy-3-(1H-tetrazol-5-yl)-biphenyl-4-yl]-urea] yielded a melting point of 200 to 201 °C. As to `O=C(Nc1cc(F)cc(F)c1)Nc1ccc(-c2cccc(C(F)(F)F)c2)cc1-c1nnn[nH]1` [Compound 3-38, N-(3,5-Difluoro-phenyl)-N′-[3-(1H-tetrazol-5-yl)-3′-trifluoromethyl-biphenyl-4-yl]-urea], the melting point was 255 to 257 °C. In the case of `O=C(Nc1ccccc1Br)Nc1ccc(-c2ccc(F)cc2)cc1-c1nnn[nH]1` [Compound 3-23, N-(2-Bromo-phenyl)-N′-[4′-fluoro-3-(1H-tetrazol-5-yl)-biphenyl-4-yl]-urea], the melting point was in the range of 256 to 258 °C. In turn, `O=C(Nc1cccc(C(F)(F)F)c1)Nc1ccc(-c2ccc(Cl)cc2)cc1-c1nnn[nH]1` [Compound 3-2, N-(3-Trifluoromethyl-phenyl)-N′-[4′-chloro-3-(1H-tetrazol-5-yl)-biphenyl-4-yl]-urea] displayed a melting point of 253 to 254 °C. Next, `O=C(Nc1cc(C(F)(F)F)cc(C(F)(F)F)c1)Nc1ccc(-c2ccc(OC(F)(F)F)cc2)cc1-c1nnn[nH]1` [Compound 3-37, N-(3,5-Bis-trifluoromethyl-phenyl)-N′-[3-(1H-tetrazol-5-yl)-4′-trifluoromethoxy-biphenyl-4-yl]-urea]: 238 to 240 °C.

Source of the values: patent US20070293553A1, “Diphenylurea Derivatives Useful As Potassium Channel Activators” (priority 2004, published 2007).
